From US20100227869A1, “ENANTIOPURE QUINUCLIDINYLOXY PYRIDAZINES AND THEIR USE AS NICOTINIC ACETYLCHOLINE RECEPTOR LIGANDS” (priority 2006, published 2010)

Row | melting point | Structure (SMILES)
1 | 154.5 to 159.4 °C | C(#Cc1ccc(O[C@@H]2CN3CCC2CC3)nn1)c1ccccc1.O=C(O)/C=C/C(=O)O
2 | 151.3 to 157.3 °C | C(#Cc1ccc(O[C@H]2CN3CCC2CC3)nn1)c1ccccc1.O=C(O)/C=C/C(=O)O
